Patent publication US9388151B2, “Methods for producing 5-(halomethyl) furfural” (MICROMIDAS, INC., priority 2012, dated 2016)

Method: The amount of solvent and CMF used are detailed in Table 1.
Once the vials were filled and sealed, each vial was held at the temperatures listed in Table 1 above for 20-30 minutes, at which time a sample was taken and analyzed by HPLC.
An aliquot was analyzed by HPLC. The following HPLC protocol was used. The column was an Agilent Technologies RX-Sil silica column; 4.6×100 mm packed with 1.8 micron silica beads. Column temperature was maintained at 50° C. Injection volume was 1.0 microliter. Mobile phase composition was 80% hexane and 20% tetrahydrofuran flowing at 1.0 mL/min.

solubility for CMF | SMILES
relatively low solubility | CCCCCCCCCCCCCC [Tetradecane]
relatively low solubility | CCCCCCCCCC [Decane]
relatively low solubility | CCCCCC [Hexane]
relatively low solubility | CCCCCCCCCCCCCCCCCCCC [Eicosane]

Further lines, the molecule ahead of its results:

SMILES | solubility for CMF
Clc1ccccc1 [Chlorobenzene] | relatively soluble
CCCCC [Pentane] | relatively low solubility
